Test results published in patent EP1137645B1, “ALPHA-METHYLBENZYL-CONTAINING THIOUREA INHIBITORS OF HERPES VIRUSES CONTAINING A […] GROUP” (Wyeth, priority 1998, dated 2000).
Values after ≈ are worked out from the molar mass of the structure shown. Where two headings read alike, the source gives them in different places.

How the values were obtained:
[1] = test system: HCMV recombinant mutant virus whose genome contains the prokaryotic beta-glucuronidase gene; experiment: microbe, parasite or virus in culture; type: cell-based, human cytomegalovirus; conditions: for IC50: Human betaherpesvirus 5, Fibroblast
Text: Microtiter plate assay. Ninety-six well plate cultures of human foreskin fibroblasts are infected in the presence of inhibitor compound with a HCMV recombinant mutant virus whose genome contains the prokaryotic beta-glucuronidase gene (Jefferson, R. A., S. M. Burgess, and D. Hirsh. 1986. Beta-glucuronidase from Escherichia coli as a gene fusion marker. Proc. Natl. Acad. Sci. USA 83:8447-8451) whose expression is controlled by a viral promoter. An example of such a virus is RV145 (Jones, T. R., V. P. Muzithras, and Y. Gluzman. 1991. Replacement mutagenesis of the human cytomegalovirus genome: US10 and US11 gene products are nonessential. J. Virol. 65:5860-5872). Since it is under the control of a viral promoter, beta-glucuronidase expression is an indirect indicator of growth and replication of HCMV in this assay. At 96 hours post-infection, the infected cell lysates are prepared (using 50mM sodium phosphate [pH7.0] containing 0.1% Triton X-100 and 0.1% sarkosyl) and assayed for beta-glucuronidase activity using a substrate for the enzyme which when cleaved yields either a product which can be measured colorimetrically in a spectrophotometer or fluorescently in a microfluorimeter. Examples of such substrates are p-nitrophenyl-beta-D-glucuronide and methylumbelliferylglucuronide, respectively. The presence of an antiviral compound is indicated by the reduced expression of the HCMV genome resident beta-glucuronidase gene, compared to the absence of inhibitor. […] Data from this assay generated using varying amounts of inhibitor compound is also used to estimate the IC50 of an inhibitor compound.

VZV strain Ellen = experiment: VZV antiviral (ELISA) assay; type: cell-based
Experimental: For the generation of stock VZV to be used in the assay, VZV strain Ellen (ATCC #VR-1367) is used to infect human foreskin fibroblast (HFF) cells at low multiplicity (less than 0.1) and incubated overnight at 37°C in 5% CO2. After the overnight incubation, the mixture of uninfected and VZV-infected HFF infected cells are then harvested and added to each well of 96-well plates (3.5x10^4 cells in 100 µl DMEM supplemented with 2% FBS) which contain test compound or the reference standard drug control (in 100µl DMEM supplemented with 2% FBS per well). These cells are incubated for three days at 37°C in 5% CO2, then fixed for ELISA assay. The primary antibody is murine anti-VZV glycoprotein II monoclonal antibody (Applied Biosystems, Inc. #13-145-100) and the secondary antibody is goat anti-mouse IgG linked to β-galactosidase. Thus the extent of viral replication is determined by assessing β-galactosidase activity by quantifying the generation of the 4-methyl umbelliferone fluorescent cleavage product after addition of the methyl umbelliferyl-β-D-galactoside (Sigma #M1633) substrate on a microfluorimeter (365nm for excitation and 450nm for emission). Antiviral activity (IC50) of the test compound is determined by comparing the flourescence obtained in absence of compound to that obtained in the presence of compound.

[2] = read-out: IC50 ug/ml HCMV, HCMV, human foreskin fibroblasts
[3] = Human alphaherpesvirus 3, HFF, read-out: IC50 (ug/ml) VZV, VZV strain Ellen, HFF cells, ELISA
[4] = Human alphaherpesvirus 3, VZV strain Ellen, HFF cells, ELISA, read-out: IC50 (ug/ml) VZV

With `O=C(Nc1ccc(NC(=S)Nc2cc(N3CCCC3)cc(C(F)(F)F)c2)cc1)c1ccccc1F` [Example 566, 2-Fluoro-N-{4-[3-(3-pyrrolidin-1-yl-5-trifluoromethyl-phenyl)-thioureido]-phenyl}-benzamide] the IC50 [1, 2] was > 0.5 µg/mL and the IC50 (VZV strain Ellen; [3]) was 2 µg/mL (≈ 3.98 µM).
With `CN(C)c1cc(NC(=S)Nc2ccc(NC(=O)c3ccccc3F)cc2)cc(C(F)(F)F)c1` [Example 567, N-{4-[3-(3-Dimethylamino-5-trifluoromethyl-phenyl)-thioureido]-phenyl}-2-fluoro-benzamide] the IC50 ([1]; read-out: IC50 ug/ml HCMV) was > 0.5 µg/mL and the IC50 (VZV strain Ellen; [4]) was 2 µg/mL (≈ 4.2 µM).
`O=C(Nc1ccc(NC(=S)Nc2cc(N3CCOCC3)cc(C(F)(F)F)c2)cc1)c1ccccc1F` [Example 568, 2-Fluoro-N-{4-[3-(3-morpholin-4-yl-5-trifluoromethyl-phenyl)-thioureido]-phenyl}-benzamide] was tested, and the IC50 [1, 2] was > 0.5 µg/mL and the IC50 (VZV strain Ellen; [3]) was 2.3 µg/mL (≈ 4.44 µM).
In the case of `CN1CCN(c2cc(NC(=S)Nc3ccc(NC(=O)c4ccccc4F)cc3)cc(C(F)(F)F)c2)CC1` [Example 569, 2-Fluoro-N-(4-{3-[3-(4-methyl-piperazin-1-yl)-5-trifluoromethyl-phenyl]-thioureido}-phenyl)-benzamide], the IC50 [1, 2] is reported as > 0.5 µg/mL and the IC50 (VZV strain Ellen; [3]) is reported as 3 µg/mL (≈ 5.64 µM).
With `O=C(Nc1ccc(NC(=S)Nc2cc(N3CCCCC3)cc(C(F)(F)F)c2)cc1)c1ccccc1F` [Example 570, 2-Fluoro-N-{4-[3-(3-piperidin-1-yl-5-trifluoromethyl-phenyl)-thioureido]-phenyl}-benzamide] the IC50 [1, 2] was > 0.5 µg/mL and the IC50 (VZV strain Ellen; [3]) was > 10 µg/mL.
For `O=C(Nc1ccc(NC(=S)NCCc2ccccc2)cc1)c1ccccc1F` [Example 576, 2-Fluoro-N-[4-(3-phenethyl-thioureido)-phenyl]-benzamide], the IC50 ([1]; read-out: IC50 ug/ml HCMV) was > 0.5 µg/mL and the IC50 (VZV strain Ellen; [4]) was 8 µg/mL (≈ 20.3 µM).
`CCC(C)Cc1cc(NC(=S)Nc2ccc(NC(=O)c3ccccc3F)cc2)cc(C(F)(F)F)c1` (stereo not drawn) [Example 577, 2-Fluoro-N-(4-{3-[3-(2-methyl-butyl)-5-trifluoromethyl-phenyl]-thioureido}-phenyl)-benzamide] was tested, and the IC50 (VZV strain Ellen; [3]) was > 7.5 µg/mL.
With `CC(C)Cc1cc(NC(=S)Nc2ccc(NC(=O)c3ccccc3F)cc2)cc(C(F)(F)F)c1` [Example 578, 2-Fluoro-N-{4-[3-(3-isobutyl-5-trifluoromethyl-phenyl)-thioureido]-phenyl}-benzamide] the IC50 (VZV strain Ellen; [3]) was > 10 µg/mL.
For `O=C(Nc1ccc(NC(=S)NCc2cc(F)cc(F)c2)cc1)c1ccccc1F` [Example 580, N-{4-[3-(3,5-Difluoro-benzyl)-thioureido]-phenyl}-2-fluoro-benzamide], the IC50 (VZV strain Ellen; [4]) was > 10 µg/mL.
`O=C(Nc1ccc(NC(=S)NCc2cc(Cl)cc(Cl)c2)cc1)c1ccccc1F` [Example 583, N-{4-[3-(3,5-Dichloro-benzyl)-thioureido]-phenyl}-2-fluoro-benzamide] showed an IC50 (VZV strain Ellen; [3]) of 10 µg/mL (≈ 22.3 µM).
With `O=C(Nc1ccc(NC(=S)NCc2cc(F)cc(C(F)(F)F)c2)cc1)c1ccccc1F` [Example 586, 2-Fluoro-N-{4-[3-(3-fluoro-5-trifluoromethyl-benzyl)-thioureido]-phenyl}-benzamide] the IC50 (VZV strain Ellen; [4]) was > 10 µg/mL.
`CN(C)c1ccc(CNC(=S)Nc2ccc(NC(=O)c3ccccc3F)cc2)cc1C(F)(F)F` [Example 610, N-{4-[3-(4-Dimethylamino-3-trifluoromethyl-benzyl)-thioureido]-phenyl}-2-fluoro-benzamide] was tested, and the IC50 [1, 2] was > 0.5 µg/mL and the IC50 (VZV strain Ellen; [3]) was > 10 µg/mL.
For `O=C(Nc1ccc(NC(=S)NCc2ccc(N3CCCCC3)c(C(F)(F)F)c2)cc1)c1ccccc1F` [Example 616, 2-Fluoro-N-{4-[3-(4-piperidin-1-yl-3-trifluoromethyl-benzyl)-thioureido]-phenyl}-benzamide], the IC50 (VZV strain Ellen; [3]) was > 10 µg/mL.
With `O=C(Nc1ccc(NC(=S)NCc2ccc(F)c(C(F)(F)F)c2)cc1)c1ccccc1F` [Example 623, 2-Fluoro-N-{4-[3-(4-fluoro-3-trifluoromethyl-benzyl)-thioureido]-phenyl}-benzamide] the IC50 (VZV strain Ellen; [4]) was > 10 µg/mL.
For `O=C(Nc1ccc(NC(=S)NCCOc2ccccc2)cc1)c1ccccc1F` [Example 625, 2-Fluoro-N-{4-[3-(2-phenoxy-ethyl)-thioureido]-phenyl}-benzamide], the IC50 (VZV strain Ellen; [4]) was 4 µg/mL (≈ 9.77 µM).
Work on `CC(NC(=S)Nc1ccc(NC(=O)c2ccccc2I)cc1)c1ccc(F)cc1` (stereo not drawn) [Example 812, N-(4-{3-[1-(4-Fluoro-phenyl)-ethyl]-thioureido}-phenyl)-2-iodo-benzamide] yielded an IC50 (VZV strain Ellen; [4]) of 3.4 µg/mL (≈ 6.55 µM).
With `CN1CCC(N(C)c2ccc(NC(=S)Nc3ccc(NC(=O)c4ccccc4F)cc3)cc2Cl)CC1` [Example 855, N-[4-(3-{3-Chloro-4-[methyl-(1-methyl-piperidin-4-yl)-amino]-phenyl}-thioureido)-phenyl]-2-fluoro-benzamide] the “IC50 ug/ml HCMV” value ([1]; HCMV, human foreskin fibroblasts) was 0.7 µg/mL (≈ 1.33 µM), the inhibition at 10 µg/mL (VZV strain Ellen; Human alphaherpesvirus 3, read-out: % inhibition 10 ug/ml VZV, 10 ug/ml, VZV strain Ellen, HFF cells, ELISA) was 52% and the IC50 (VZV strain Ellen; [4]) was > 10 µg/mL.
With `CC(NC(=S)Nc1ccc(NC(=O)c2cc3ccccc3cn2)cc1)c1ccc(F)cc1` (stereo not drawn) [Example 984, Isoquinoline-3-carboxylic acid (4-{3-[1-(4-fluoro-phenyl)-ethyl]-thioureido}-phenyl)-amide] the IC50 [1, 2] was 1.5 µg/mL (≈ 3.37 µM) and the IC50 (VZV strain Ellen; [3]) was 0.08 µg/mL (≈ 0.18 µM).
In the case of `CC(NC(=S)Nc1ccc(NC(=O)c2ccccc2C(F)(F)F)cc1)c1ccc(F)cc1` (stereo not drawn) [Example 992, N-(4-{3-[1-(4-Fluoro-phenyl)-ethyl]-thioureido}-phenyl)-2-trifluoromethyl-benzamide], the IC50 ([1]; read-out: IC50 ug/ml HCMV) is reported as 4 µg/mL (≈ 8.67 µM) and the IC50 (VZV strain Ellen; [4]) is reported as 1.2 µg/mL (≈ 2.6 µM).
For `CC(NC(=S)Nc1ccc(NC(=O)c2ccccc2C#N)cc1)c1ccc(F)cc1` (stereo not drawn) [Example 993, 2-Cyano-N-(4-{3-[1-(4-fluoro-phenyl)-ethyl]-thioureido}-phenyl)-benzamide], the IC50 (VZV strain Ellen; [4]) was 2.7 µg/mL (≈ 6.45 µM).
Work on `C[C@@H](NC(=S)Nc1ccc(NC(=O)c2ccccc2F)cc1)c1ccc(Br)cc1` [Example 1005, N-(4-{3-[(1R)-1-(4-Bromo-phenyl)-ethyl]-thioureido}-phenyl)-2-fluoro-benzamide] yielded an IC50 [1, 2] of 2.1 µg/mL (≈ 4.45 µM) and an IC50 (VZV strain Ellen; [3]) of 4.3 µg/mL (≈ 9.1 µM).
For `CC(NC(=S)Nc1ccc(NC(=O)c2ccccc2F)cc1)c1ccc(Br)cc1` (stereo not drawn) [Example 1102, N-(4-{3-[1-(4-Bromo-phenyl)-ethyl]-thioureido}-phenyl)-2-fluoro-benzamide], the IC50 [1, 2] was 1.7 µg/mL (≈ 3.6 µM) and the IC50 (VZV strain Ellen; [3]) was 0.2 µg/mL (≈ 0.423 µM).
Compound `C[C@H](NC(=S)Nc1ccc(NC(=O)c2ccc(F)cc2)cc1)c1ccc(Br)cc1` [Example 1103, N-(4-{3-[(1S)-1-(4-Bromo-phenyl)-ethyl]-thioureido}-phenyl)-4-fluoro-benzamide] has an IC50 [1, 2] of 3.4 µg/mL (≈ 7.2 µM) and an IC50 (VZV strain Ellen; [3]) of 0.47 µg/mL (≈ 0.995 µM).
`COc1ccccc1C(=O)Nc1ccc(NC(=S)N[C@@H](C)c2ccc(Br)cc2)cc1` [Example 1104, N-(4-{3-[(1S)-1-(4-Bromo-phenyl)-ethyl]-thioureido}-phenyl)-2-methoxy-benzamide] gave an IC50 [1, 2] of 4.9 µg/mL (≈ 10.1 µM) and an IC50 (VZV strain Ellen; [3]) of 0.09 µg/mL (≈ 0.186 µM).
With `COc1ccccc1C(=O)Nc1ccc(NC(=S)N[C@H](C)c2ccc(Br)cc2)cc1` [Example 1105, N-(4-{3-[(1R)-1-(4-Bromo-phenyl)-ethyl]-thioureido}-phenyl)-2-methoxy-benzamide] the IC50 [1, 2] was 2.5 µg/mL (≈ 5.16 µM) and the IC50 (VZV strain Ellen; [3]) was > 7.5 µg/mL.
`CC(NC(=S)Nc1ccc(NC(=O)c2ccccc2F)cc1)c1ccc(C(F)(F)F)cc1F` (stereo not drawn) [Example 1106, 2-fluoro-N-(4-{[({1-[2-fluoro-4-(trifluoromethyl)phenyl]ethyl}amino)carbothioyl]amino}phenyl)benzamide] was tested, and the IC50 ([1]; read-out: IC50 ug/ml HCMV) was 1.1 µg/mL (≈ 2.29 µM) and the IC50 (VZV strain Ellen; [4]) was > 7.5 µg/mL.
`C[C@H](NC(=S)Nc1ccc(NC(=O)c2nccc3ccccc23)cc1)c1ccc(Br)cc1` [Example 1107, Isoquinoline-1-carboxylic acid (4-{3-[(1S)-1-(4-bromo-phenyl)-ethyl]-thioureido}-phenyl)-amide] gave an IC50 [1, 2] of 8.1 µg/mL (≈ 16 µM) and an IC50 (VZV strain Ellen; [3]) of 0.05 µg/mL (≈ 0.0989 µM).
